What was measured:
corophium volutator = test: Toxicity to sediment reworker, Part B of the OSPAR Protocols; type: in vivo
From the text: (§1) According to still other embodiments described herein, a disulfonate salt of 2,4-pentanedione is provided. According to one such embodiment, the salt comprises 2,4-pentanedione-1,5-sodium disulfonate. According to another such embodiment, a disulfonate salt of 2,4-pentanedione has an environmentally acceptable toxicity. As used herein, the term “environmentally acceptable toxicity” means that, when tested according to procedures that are the same as or equivalent to those set forth by the OSPAR Guidelines for Completing the Harmonised Offshore Chemical Notification Format (HOCNF) (References number: 2003-1) that were in effect on Dec. 31, 2004, the salt is determined to have a toxicity of greater than about 10,000 mg/L for an algae (skeletonema costatum), a crustacean (acartia tonsa), a fish (scopthalmus) and a sediment reworker (corophium volutator). […]
(§2) In this Example 3, the toxicity results for the skeletonema costatum were determined according to ISO (International Organization for Standardization) 10253, the protocol for which is known to those of ordinary skill in the art, and is also the protocol required under the above-referenced HOCNF Guidelines. The toxicity results for the acartia tonsa were determined according to ISO 14669, the protocol for which is known to those of ordinary skill in the art. […]

scopthalmus = test: Toxicity to fish, Part B of the OSPAR Protocols; type: in vivo
From the text: as §1, §2

acartia tonsa = test: Toxicity to crustacean, ISO 14669; type: in vivo
From the text: as §1, §2

[1] = Solubility of the salt compared to the free acid (methanol rinse); type: physicochemical
From the text: The neutralized product is then rinsed with a rinsing agent, for example, methanol, to remove other acid by-products, such as hydrochloric and sulfuric acids, and/or mono-sulfonic acids, and/or to remove other salts formed by the neutralization, such as salts of hydrochloric and sulfuric acids, and/or mono-sulfonic acids. It was discovered that […] solvents, such as methanol, would remove the by-product acids and/or salts, while leaving the salt of 2,4-pentanedione-1,5 disulfonic acid primarily undissolved.
The neutralized product was then rinsed several times with methanol to remove by-product acids, or any salts formed therefrom, while leaving the 2,4-pentanedione-1,5-sodium disulfonate primarily undissolved. […] The rinsed product was dried in a vacuum oven and filtered through a 300 mesh screen to afford a flowing pale orange/red powder. The resulting powder was 2,4-pentanedione-1,5-sodium disulfonate.

skeletonema costatum = test: Toxicity to algae, ISO 10253 (HOCNF); type: in vivo
From the text: as §1, §2

## O=C(CC(=O)CS(=O)(=O)[O-])CS(=O)(=O)[O-].[Na+].[Na+] [2,4-pentanedione-1,5-sodium disulfonate]
Corophium volutator
  toxicity (amount required to kill or incapacitate half the test population): greater than 10,000 mg/L
scopthalmus
  toxicity (amount required to kill or incapacitate half the test population): greater than 10,000 mg/L
Acartia tonsa
  toxicity (amount required to kill or incapacitate half the test population): greater than 10,000 mg/L
[1]
  solubility compared to the 2,4-pentanedione-1,5-disulfonic free acid: significantly less soluble
Skeletonema costatum
  toxicity (amount required to kill or incapacitate half the test population): greater than 10,000 mg/L
